Data from patent US20160297833A1, “THIENOPYRIMIDINES AS MKNK1 AND MKNK2 INHIBITORS” (BAYER PHARMA AKTIENGESELLSCHAFT, priority 2013, published 2016).

Molecular target: T1, human full-length MKNK1 (Homo sapiens, UniProt Q9BUB5, T385D)
T1 construct: GST (N); purchased Carna Biosciences 02-145; host or cells: insect cells (baculovirus expression system)
Test: MKNK1 kinase high ATP assay (TR-FRET)
Format: biochemical
Conditions: Table 1; MKNK1 kinase high ATP assay, 2 mM ATP; read-out: MKNK1 IC50
In short: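 Full-length human MKNK1 (T385D) preincubated 15 min at 22 °C with compound in HEPES pH 7.5/MgCl2/DTT buffer; reaction with 2 mM ATP (final) and 0.06 μM biotinylated peptide (final), 30 min at 22 °C.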

T1 sequence (Q9BUB5 1-424 isoform Q9BUB5-2 T344D): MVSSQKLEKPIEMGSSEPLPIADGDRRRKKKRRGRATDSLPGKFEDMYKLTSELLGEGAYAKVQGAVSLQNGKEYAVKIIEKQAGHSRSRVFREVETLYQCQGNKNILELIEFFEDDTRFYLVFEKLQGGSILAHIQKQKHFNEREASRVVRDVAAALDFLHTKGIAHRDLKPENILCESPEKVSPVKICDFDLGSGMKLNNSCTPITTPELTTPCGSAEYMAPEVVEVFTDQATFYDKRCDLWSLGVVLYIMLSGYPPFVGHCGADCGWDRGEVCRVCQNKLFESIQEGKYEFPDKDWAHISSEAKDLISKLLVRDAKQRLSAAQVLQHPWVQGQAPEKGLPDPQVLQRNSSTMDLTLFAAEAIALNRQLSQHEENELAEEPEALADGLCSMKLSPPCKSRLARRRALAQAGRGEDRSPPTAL

Compound	IC50 [nM]
CC(C)Oc1cc2[nH]ncc2cc1Nc1ncnc2sc3c(c12)CC[C@H](C(=O)N1CC[C@H](N(C)C)C1)C3 [Example 168, [(3S)-3-(dimethylamino)pyrrolidin-1-yl][(7S)-4-{[6-(propan-2-yloxy)-1H-indazol-5-yl]amino}-5,6,7,8-tetrahydro[1]benzothieno[2,3-d]pyrimidin-7-yl]methanone]	0.4
CC(C)Oc1cc2[nH]ncc2cc1Nc1ncnc2sc3c(c12)CC[C@H](C(=O)N1CC[C@@H](N(C)C)C1)C3 [Example 169, [(3R)-3-(Dimethylamino)pyrrolidin-1-yl][(7S)-4-{[6-(propan-2-yloxy)-1H-indazol-5-yl]amino}-5,6,7,8-tetrahydro[1]benzothieno[2,3-d]pyrimidin-7-yl]methanone]	0.1
COc1cc2[nH]ncc2cc1Nc1ncnc2sc3c(c12)CC[C@H](C(=O)N(C)CCCn1ccnc1)C3 [Example 170, (7S)—N-[3-(1H-Imidazol-1-yl)propyl]-4-[(6-methoxy-1H-indazol-5-yl)amino]-N-methyl-5,6,7,8-tetrahydro[1]benzothieno[2,3-d]pyrimidine-7-carboxamide]	0.6
COc1cc2[nH]ncc2cc1Nc1ncnc2sc3c(c12)CC[C@H](C(=O)N(C)CCn1ccnc1)C3 [Example 171, (7S)—N-[2-(1H-Imidazol-1-yl)ethyl]-4-[(6-methoxy-1H-indazol-5-yl)amino]-N-methyl-5,6,7,8-tetrahydro[1]benzothieno[2,3-d]pyrimidine-7-carboxamide]	0.4
CCOc1cc2[nH]ncc2cc1Nc1ncnc2sc3c(c12)CC[C@H](C(=O)N1CC[C@H](N(C)C)C1)C3 [Example 172, [(3S)-3-(Dimethylamino)pyrrolidin-1-yl]{(7S)-4-[(6-ethoxy-1H-indazol-5-yl)amino]-5,6,7,8-tetrahydro[1]benzothieno[2,3-d]pyrimidin-7-yl}methanone]	0.1
CCOc1cc2[nH]ncc2cc1Nc1ncnc2sc3c(c12)CC[C@H](C(=O)N(C)CC(C)(C)C)C3 [Example 173, (7S)—N-(2,2-Dimethylpropyl)-4-[(6-ethoxy-1H-indazol-5-yl)amino]-N-methyl-5,6,7,8-tetrahydro[1]benzothieno[2,3-d]pyrimidine-7-carboxamide]	0.4
CCCN(C)C(=O)[C@H]1CCc2c(sc3ncnc(Nc4cc5cn[nH]c5cc4OCC)c23)C1 [Example 174, (7S)-4-[(6-Ethoxy-1H-indazol-5-yl)amino]-N-methyl-N-propyl-5,6,7,8-tetrahydro[1]benzothieno[2,3-d]pyrimidine-7-carboxamide]	0.1
CCOc1cc2[nH]ncc2cc1Nc1ncnc2sc3c(c12)CC[C@H](C(=O)N1CC(N2CCCCC2)C1)C3 [Example 175, {(7S)-4-[(6-Ethoxy-1H-indazol-5-yl)amino]-5,6,7,8-tetrahydro[1]benzothieno[2,3-d]pyrimidin-7-yl}[3-(piperidin-1-yl)azetidin-1-yl]methanone]	0.2
CN(C)C(=O)[C@H]1CCc2c(sc3ncnc(Nc4cc5cn[nH]c5cc4OCC(C)(C)C)c23)C1 [Example 176, (7S)-4-{[6-(2,2-Dimethylpropoxy)-1H-indazol-5-yl]amino}-N,N-dimethyl-5,6,7,8-tetrahydro[1]benzothieno[2,3-d]pyrimidine-7-carboxamide]	39.8
COc1cc2[nH]ncc2cc1Nc1ncnc2sc3c(c12)CC[C@H](C(=O)N(C)CC(C)(C)C)C3 [Example 177, (7S)—N-(2,2-Dimethylpropyl)-4-[(6-methoxy-1H-indazol-5-yl)amino]-N-methyl-5,6,7,8-tetrahydro[1]benzothieno[2,3-d]pyrimidine-7-carboxamide]	2.6
COc1cc2[nH]ncc2cc1Nc1ncnc2sc3c(c12)CC[C@H](C(=O)N1CC(N2CCCCC2)C1)C3 [Example 178, {(7S)-4-[(6-Methoxy-1H-indazol-5-yl)amino]-5,6,7,8-tetrahydro[1]benzothieno[2,3-d]pyrimidin-7-yl}[3-(piperidin-1-yl)azetidin-1-yl]methanone]	0.2
COc1cc2[nH]ncc2cc1Nc1ncnc2sc3c(c12)CC[C@H](C(=O)N1CC[C@@H](N(C)C)C1)C3 [Example 179, [(3R)-3-(Dimethylamino)pyrrolidin-1-yl]{(7S)-4-[(6-methoxy-1H-indazol-5-yl)amino]-5,6,7,8-tetrahydro[1]benzothieno[2,3-d]pyrimidin-7-yl}methanone]	0.4
CN(C)C(=O)[C@H]1CCc2c(sc3ncnc(Nc4cc5cn[nH]c5cc4OCCCNC(=O)OC(C)(C)C)c23)C1 [Example 180, tert-Butyl {3-[(5-{[(7S)-7-(dimethylcarbamoyl)-5,6,7,8-tetrahydro[1]benzothieno[2,3-d]pyrimidin-4-yl]amino}-1H-indazol-6-yl)oxy]propyl}carbamate]	0.4
CN(C)C(=O)[C@H]1CCc2c(sc3ncnc(Nc4cc5cn[nH]c5cc4Br)c23)C1 [Example 181, (7S)-4-[(6-Bromo-1H-indazol-5-yl)amino]-N,N-dimethyl-5,6,7,8-tetrahydro[1]benzothieno[2,3-d]pyrimidine-7-carboxamide]	3.6
CN(C)C(=O)[C@H]1CCc2c(sc3ncnc(Nc4cc5cn[nH]c5cc4Cl)c23)C1 [Example 182, (7S)-4-[(6-Chloro-1H-indazol-5-yl)amino]-N,N-dimethyl-5,6,7,8-tetrahydro[1]benzothieno[2,3-d]pyrimidine-7-carboxamide]	5.3
C[C@@H]1CN(C(=O)[C@H]2CCc3c(sc4ncnc(Nc5cc6cn[nH]c6cc5N5CCCC5)c34)C2)C[C@H](C)O1 [Example 183, [(2R,6S)-2,6-Dimethylmorpholin-4-yl][(7S)-4-{[6-(pyrrolidin-1-yl)-1H-indazol-5-yl]amino}-5,6,7,8-tetrahydro[1]benzothieno[2,3-d]pyrimidin-7-yl]methanone]	0.7
C[C@@H]1COCCN1C(=O)[C@H]1CCc2c(sc3ncnc(Nc4cc5cn[nH]c5cc4N4CCCC4)c23)C1 [Example 184, [(3R)-3-Methylmorpholin-4-yl][(7S)-4-{[6-(pyrrolidin-1-yl)-1H-indazol-5-yl]amino}-5,6,7,8-tetrahydro[1]benzothieno[2,3-d]pyrimidin-7-yl]methanone]	0.4
C[C@H]1COCCN1C(=O)[C@H]1CCc2c(sc3ncnc(Nc4cc5cn[nH]c5cc4N4CCCC4)c23)C1 [Example 185, [(3S)-3-Methylmorpholin-4-yl][(7S)-4-{[6-(pyrrolidin-1-yl)-1H-indazol-5-yl]amino}-5,6,7,8-tetrahydro[1]benzothieno[2,3-d]pyrimidin-7-yl]methanone]	0.6
CN(C)C(=O)[C@H]1CCc2c(sc3ncnc(Nc4cc5cn[nH]c5cc4S(C)(=O)=O)c23)C1 [Example 186, (7S)—N,N-Dimethyl-4-{[6-(methylsulfonyl)-1H-indazol-5-yl]amino}-5,6,7,8-tetrahydro[1]benzothieno[2,3-d]pyrimidine-7-carboxamide]	44.7
C[C@@H]1COCCN1C(=O)[C@H]1CCc2c(sc3ncnc(Nc4cc5cn[nH]c5cc4N(C)C)c23)C1 [Example 187, [(7S)-4-{[6-(Dimethylamino)-1H-indazol-5-yl]amino}-5,6,7,8-tetrahydro[1]benzothieno[2,3-d]pyrimidin-7-yl][(3R)-3-methylmorpholin-4-yl]methanone]	0.2
C[C@H]1COCCN1C(=O)[C@H]1CCc2c(sc3ncnc(Nc4cc5cn[nH]c5cc4N(C)C)c23)C1 [Example 188, [(7S)-4-{[6-(Dimethylamino)-1H-indazol-5-yl]amino}-5,6,7,8-tetrahydro[1]benzothieno[2,3-d]pyrimidin-7-yl][(3S)-3-methylmorpholin-4-yl]methanone]	0.3
C[C@@H]1CN(C(=O)[C@H]2CCc3c(sc4ncnc(Nc5cc6cn[nH]c6cc5N(C)C)c34)C2)C[C@H](C)O1 [Example 189, [(7S)-4-{[6-(Dimethylamino)-1H-indazol-5-yl]amino}-5,6,7,8-tetrahydro[1]benzothieno[2,3-d]pyrimidin-7-yl][(2R,6S)-2,6-dimethylmorpholin-4-yl]methanone]	0.1
CCOc1cc2[nH]ncc2cc1Nc1ncnc2sc3c(c12)CC[C@H](C(=O)N1CC[C@@H](N(C)C)C1)C3 [Example 190, [(3R)-3-(Dimethylamino)pyrrolidin-1-yl]{(7S)-4-[(6-ethoxy-1H-indazol-5-yl)amino]-5,6,7,8-tetrahydro[1]benzothieno[2,3-d]pyrimidin-7-yl}methanone]	0.3
CN(C)C(=O)[C@H]1CCc2c(sc3ncnc(Nc4cc5cn[nH]c5cc4OC(F)(F)F)c23)C1 [Example 191, (7S)—N,N-Dimethyl-4-{[6-(trifluoromethoxy)-1H-indazol-5-yl]amino}-5,6,7,8-tetrahydro[1]benzothieno[2,3-d]pyrimidine-7-carboxamide]	1.4
CCCSc1cc2[nH]ncc2cc1Nc1ncnc2sc3c(c12)CC[C@H](C(=O)N(C)C)C3 [Example 192, (7S)—N,N-Dimethyl-4-{[6-(propylsulfanyl)-1H-indazol-5-yl]amino}-5,6,7,8-tetrahydro[1]benzothieno[2,3-d]pyrimidine-7-carboxamide]	2.2
CN(C)C(=O)[C@H]1CCc2c(sc3ncnc(Nc4cc5cn[nH]c5cc4OCCN4CCCC4=O)c23)C1 [Example 193, (7S)—N,N-Dimethyl-4-({6-[2-(2-oxopyrrolidin-1-yl)ethoxy]-1H-indazol-5-yl}amino)-5,6,7,8-tetrahydro[1]benzothieno[2,3-d]pyrimidine-7-carboxamide]	222
CN(C)C(=O)[C@H]1CCc2c(sc3ncnc(Nc4cc5cn[nH]c5cc4OCCN4CCOC4=O)c23)C1 [Example 194, (7S)—N,N-Dimethyl-4-({6-[2-(2-oxo-1,3-oxazolidin-3-yl)ethoxy]-1H-indazol-5-yl}amino)-5,6,7,8-tetrahydro[1]benzothieno[2,3-d]pyrimidine-7-carboxamide]	44.3
